One experiment addresses T1, FXIIIa (Homo sapiens, UniProt P00488).
T1 sequence (P00488 39-732 limits assumed): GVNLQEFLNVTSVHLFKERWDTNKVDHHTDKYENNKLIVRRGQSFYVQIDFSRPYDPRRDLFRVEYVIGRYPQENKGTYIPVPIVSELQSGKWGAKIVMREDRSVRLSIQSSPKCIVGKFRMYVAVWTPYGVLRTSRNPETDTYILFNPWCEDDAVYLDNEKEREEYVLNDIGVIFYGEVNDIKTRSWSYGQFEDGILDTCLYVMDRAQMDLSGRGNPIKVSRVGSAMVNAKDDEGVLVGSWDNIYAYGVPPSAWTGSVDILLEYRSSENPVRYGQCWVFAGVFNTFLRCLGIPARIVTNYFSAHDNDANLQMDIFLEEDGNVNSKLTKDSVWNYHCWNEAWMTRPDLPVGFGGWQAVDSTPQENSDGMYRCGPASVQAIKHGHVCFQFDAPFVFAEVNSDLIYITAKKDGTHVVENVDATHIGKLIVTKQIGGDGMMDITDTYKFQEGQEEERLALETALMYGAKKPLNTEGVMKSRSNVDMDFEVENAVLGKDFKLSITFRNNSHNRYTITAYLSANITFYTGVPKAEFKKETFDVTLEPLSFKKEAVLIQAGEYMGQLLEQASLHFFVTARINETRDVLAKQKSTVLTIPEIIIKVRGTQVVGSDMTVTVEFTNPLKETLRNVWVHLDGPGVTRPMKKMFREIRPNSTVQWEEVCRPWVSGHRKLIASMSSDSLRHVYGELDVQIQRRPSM
Nature of the experiment: Fibrinogen clotting assay, FXIIIa (gamma-gamma bands scanned). The format is biochemical. The following applies: read-out: % FXIIIa Inhibition. The method, then: (§1) Clots were formed in 1.5 ml Eppendorf tubes by adding reagents to give the following final assay concentrations in a total volume of 100 μl: 2 mg/ml FXIII-free fibrinogen purified on a rabbit anti-FXIII column (Enzyme Research Labs); 20 mM CaCl2; 1 unit/ml thrombin (bovine, Enzyme Research Labs); and either 1 μg/ml FXIIIa (recombinant human FXIIIa2 (ZymoGenetics)) or 20 μg/ml tTG (Sigma) in 120 mM NaCl plus 25 mM Tris at about pH 7.2. In addition, 10 μl of one of the following was added to each tube in varying concentrations to determine a dose response: iodoacetamide, ZG-1400a or cerulenin. The final reaction volume in each Eppendorf tube was adjusted to 100 μl with 120 mMNaCl plus 25 mM Tris at about pH 7.2.
(§2) A positive (complete cross-linking) control contained fibrinogen, enzyme (FXIIIa or tTG), calcium, and thrombin at final assay concentrations listed above, and was tested in the absence of any inhibitor. A negative (no cross-linking) control contained a solution of FXIII-free fibrinogen, thrombin and 20 μM EDTA [(ethylene dinitrilo)tetraacetic acid, disodium salt, dihydrate (J. T. Baker, Phillipsburg, N.J.)] in the absence of calcium and enzyme. Both positive and negative controls contained a final DMSO concentration of 1%. The FXIIIa-treated clots and their controls were incubated for about 10 min at about 37° C., while the tTG-treated clots and their controls were incubated for about 4 h at about 37° C. After incubation, all of the clots and controls were frozen to quench reactions.
(§3) Frozen clots and controls were boiled for about 3 min, centrifuged at 14,000 RPM for 5 min, and then the supernatant was removed. The clots were resuspended in 100 μl lysis buffer and incubated overnight at 37° C. The lysis buffer Contained 10M urea, 10 mM EDTA, 1% sodium dodecyl sulfate ("SDS"), and 1% 2-mercaptoethanol. After incubation, approximately 5 μl of each sample was brought to a final volume of 20 μl with a reducing sample buffer (containing 125 mM Tris, pH 6.8, 20% glycerol, 4% SDS, 10% 2-mercaptoethanol, and 0.025% bromophenol blue), and applied to 4-15% gradient gels (Integrated Separation Systems, Natick, Mass.) for polyacrylamide electrophoresis (PAGE) at 200 volts for approximately 1 h or until the tracking dye reached the bottom of the gel.
(§4) After staining with Coomassie blue, the alpha, beta, and gamma chains of fibrin were visualized as bands on the gel. The presence of FXIIIa-catalyzed fibrin cross-linking was observed by the appearance of a gamma-gamma dimer, and the disappearance of the monomeric gamma band from the gels. The tTG cross-linking occurs by formation of alpha chain polymers and alpha2 -gamma oligomers. Since there are many bands, they are difficult to visualize. A better indication of tTG cross-linking was the disappearance of the monomeric alpha band from the gels. In addition, the gamma band was reduced, but to a lesser degree than in FXIIIa cross-linked clots.
(§5) The gels were also scanned on a densitometer (Bio Image Whole Band Analyzer, Millipore Corp., Bedford, Mass.). The relative intensity of gamma-gamma bands were scanned and compared for FXIIIa inhibition, while alpha bands were scanned and compared for tTG inhibition. No cross-linkingwas detected in the negative controls containing only FXIII-free fibrinogen thrombin and DMSO. […] The inhibition results obtained from PAGE of samples prepared as described above, and containing ZG-1400a at 100 μM and 10 μM, or cerulenin or iodoacetamide at 1 mM, 100 μM, and 10 μM, are shown in Table 2.

The next experiment has as its target T2, tTG (Cavia cutleri, UniProt P08587).
T2 construct: purchased Sigma
T2 sequence (P08587 1-690): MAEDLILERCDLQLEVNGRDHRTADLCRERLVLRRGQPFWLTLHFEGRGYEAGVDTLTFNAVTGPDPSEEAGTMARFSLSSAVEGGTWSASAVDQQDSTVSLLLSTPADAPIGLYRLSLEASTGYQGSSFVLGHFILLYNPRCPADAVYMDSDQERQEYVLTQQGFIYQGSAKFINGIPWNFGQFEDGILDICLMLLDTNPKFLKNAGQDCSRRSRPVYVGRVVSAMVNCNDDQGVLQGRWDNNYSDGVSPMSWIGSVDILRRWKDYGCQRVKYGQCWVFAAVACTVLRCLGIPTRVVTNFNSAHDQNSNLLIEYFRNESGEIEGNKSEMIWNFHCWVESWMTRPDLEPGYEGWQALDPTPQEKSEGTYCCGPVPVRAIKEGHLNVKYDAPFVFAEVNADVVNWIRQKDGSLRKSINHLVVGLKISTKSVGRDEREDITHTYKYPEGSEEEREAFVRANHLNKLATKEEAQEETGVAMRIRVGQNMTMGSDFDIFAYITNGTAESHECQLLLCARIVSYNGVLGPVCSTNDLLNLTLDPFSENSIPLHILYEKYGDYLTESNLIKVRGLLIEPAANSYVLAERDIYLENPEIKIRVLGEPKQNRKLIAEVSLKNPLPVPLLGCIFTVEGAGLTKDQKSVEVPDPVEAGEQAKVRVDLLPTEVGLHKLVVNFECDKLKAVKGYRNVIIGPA
The experiment can be described thus: Fibrinogen clotting assay, tTG (alpha bands scanned). The format is biochemical. The conditions noted are these: read-out: % tTG Inhibition. The method, then: as §1, §2, §3, §4, §5

Setting [1] is: 10 μM, gamma-gamma bands, densitometer.
Where [2] appears, read: 100 μM, gamma-gamma bands, densitometer.
Setting [3] is: 10 μM, alpha bands, densitometer.
The mark [4] stands for this setting: 100 μM, alpha bands, densitometer.

By inhibition is commonly meant the relative decrease from the control value, in per cent.

Like-named read-outs stand apart in the source and are kept apart here.

Regarding `CC=CCC=CCCC(=O)C1OC1C(N)=O` (stereo not shown) [Cerulenin, 2,3-epoxy-4-oxo-7,10-dodecadienamide], the inhibition at 10 µM came out at 8% on FXIIIa (setting [1]) and 30% at tTG (setting [3]). Further, the inhibition at 100 µM was 38% at FXIIIa (setting [2]) and 79% at tTG (setting [4]). Also, the inhibition at 1000 µM on FXIIIa (1 mM, gamma-gamma bands, densitometer) is 100%; on tTG (1 mM, alpha bands, densitometer), 94%.

With `NC(=O)CI` [Iodoacetamide, iodoacetamide], at FXIIIa, the inhibition at 10 µM was 66%, the inhibition at 100 µM stood at 100% and the inhibition at 1000 µM was determined as 100%. Besides, at tTG, the inhibition at 10 µM was 72%, the inhibition at 100 µM worked out at 68% and the inhibition at 1000 µM stood at 60%.

As to `C[C@@H]1CCC/C=C\C(=O)Cc2cc(O)cc(O)c2C(=O)O1` [ZG-1400, R(-) enantiomer of cis-resorcylide], the inhibition at 10 µM was 66% on FXIIIa (setting [1]) and 80% on tTG (setting [3]). Moreover, the inhibition at 100 µM at FXIIIa (setting [2]) came to 100%; at tTG (setting [4]), 83%.

The record behind these values is US5710174A, “Factor XIIIA inhibitor” (Zymo Genetics, Inc., priority 1995, dated 1998).
